Where two headings read alike, the source gives them in different places.

18 molecules from patent US20150175556A1, “DIHYDROPYRIMIDIN-2(1H)-ONES AND DIHYDROPYRIMIDIN-2(1H)-THIONES AS INHIBITORS OF SODIUM IODIDE SYMPORTER” (COMMISSARIAT A L'ENERGIE ATOMIQUE ET AUX ENERGIES …, priority 2012, published 2015) can be followed below.

The target in data set [1] is T1, sodium iodide symporter (NIS), iodide uptake in FRTL5 cells (Rattus norvegicus, UniProt Q63008).
T1 construct: endogenous in cells; host or cells: FRTL5 (rat thyroid-derived cells)
T1 sequence (Q63008 1-618): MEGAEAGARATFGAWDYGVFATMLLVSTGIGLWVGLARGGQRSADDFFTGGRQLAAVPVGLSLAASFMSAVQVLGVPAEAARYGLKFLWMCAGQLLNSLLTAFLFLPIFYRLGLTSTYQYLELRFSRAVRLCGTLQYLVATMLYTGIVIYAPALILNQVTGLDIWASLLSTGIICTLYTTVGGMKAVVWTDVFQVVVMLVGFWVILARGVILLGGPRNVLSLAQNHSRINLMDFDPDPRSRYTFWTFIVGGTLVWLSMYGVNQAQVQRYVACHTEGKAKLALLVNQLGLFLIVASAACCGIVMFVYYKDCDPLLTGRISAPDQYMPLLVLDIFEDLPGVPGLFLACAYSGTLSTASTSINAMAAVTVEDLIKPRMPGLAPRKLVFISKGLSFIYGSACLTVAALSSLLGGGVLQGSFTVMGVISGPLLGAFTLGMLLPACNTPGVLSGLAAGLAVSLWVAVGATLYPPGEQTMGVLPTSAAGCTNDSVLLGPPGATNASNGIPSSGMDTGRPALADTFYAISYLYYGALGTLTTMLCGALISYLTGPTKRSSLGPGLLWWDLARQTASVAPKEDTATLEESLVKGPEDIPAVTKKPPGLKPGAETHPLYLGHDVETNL
Kind of data set: Inhibition of iodide uptake in FRTL5 cells, non radioactive arsenic/cerium assay. It counts as cell-based. Conditions: NaI 10 μM, 1 hour, 20°C, read-out: IC50 (μM), inhibitory activity against iodide uptake in FRTL5 cells. As for the experimental part:
Some of the synthesized compounds were evaluated for their ability to inhibit iodide entrapment in FRTL5 cells. The IC50 values were measured in at least […] independent experiments.
The biological activity of each compound was determined in FRTL5 cells, using a non radioactive arsenic/cerium assay as described in F. Waltz et al., Anal. Biochem., 2012, 396, 91-95. Compound potency was expressed as IC50, the concentration of compound necessary to achieve 50% inhibition of iodide uptake. Briefly, to FRTL5 cells at 70-90% confluence was added compound (200 μM, 10 μM, 0.5 μM, 25 nM, 1.2 nM, 60 pM, […], and 0.15 pM final), followed by NaI (10 μM final). After 1 hour incubation at 20±1° C., supernatant was removed and the cells were immediately assayed for iodide content using the modified As/Ce Sandell-Kolthoff reaction. NaClO4 was tested in each microplate as assay controls. The IC50 values of all compounds were measured least thrice independently.
Stock solutions of tested compounds were prepared in DMSO (20 mM) and that of NaClO4 in water (20 mM). These stock solutions were stored at 4° C. for up to 2 months. Sample dilutions: the day of the assay, a daughter plate (clear flat-bottomed 96-well polystyrene microplates, Costar 9017) was prepared from 20 mM stock solutions. NaClO4 (column 2) and DHPM samples (columns 4 to 11) were diluted at 10× the final concentration in uptake buffer.
FRTL5 cells were cultured as described in F. S. Ambesi-Impiombato et al., Proc. Natl. Acad. Sci. USA, 1980, 77, 3455-3459. Briefly, FRTL5 cells were cultured in Coon's modified F12 medium supplemented with 5% heat-inactivated fetal bovine serum (Invitrogen), 2 mM L-glutamine, 100 U/mL penicillin, 0.1 mg/mL streptomycin, 10 μg/mL insulin, 10 nM hydrocortisone, 10 ng/mL Gly-His-Lys acetate, 1 mU/mL TSH, 5 μg/mL transferrin at 37° C. and 5% CO2. For iodide uptake assays, 200 μL of FRTL5 cells with density of 250,000 cells/mL were dispensed in each well of clear flat-bottomed 96-well polystyrene microplates (Costar 3628) using the Multidrop 384 (ThermoFisher Scientific), and further cultured until confluence reached 80-90% (3-4 days).
The culture medium of FRTL5 monolayer cells at 80-90% confluence was replaced by uptake buffer (20° C.) via continuous aspiration/dispense cycle (600 μL) using a 96-needle head plate washer PW 384 (Tecan). The 96-needle head was set to a vertical position such that 80 μL of fresh uptake buffer remained in each well at the end of the cycle. The samples (10 μL each) from the daughter plate were transferred all at once to the assay plate using the 96-tip head pipettor Liquidator 96 (Mettler Toledo). Immediately after, 10 μL of a NaI solution at 100 μM was added to each well of the assay plate using the Liquidator 96. The assay plate was left to stand in the dark at 20±1° C. for 60 min. The assay plate was then washed with cold (4° C.) uptake buffer using the PW 384 plate washer and residual supernatant was immediately discarded by inverting the assay plate on absorbent paper.
Sodium iodide standards (S1 to S7) and water (S0) were distributed in duplicate (100 μL each) in the first and last column of the assay plate. Water (100 μL) was added to the columns with the Multidrop 384. 100 μL of the ammonium cerium (IV) sulfate solution (10.5 mM) was distributed into the columns, followed by 100 μL of the sodium arsenite (III) solution (24 mM) using the Multidrop 384. The assay plate was left to stand at 20±1° C. for 30 min. The absorbance at 420 nm (Abs420) was immediately recorded on a SpectraMax Plus 384 (Molecular Devices). A calibration curve was prepared for each plate by plotting the logarithmic conversion of the means of Abs420 (n=2) vs iodide standard concentrations (S0 to S7). The iodide concentrations in the samples were determined after linear regression of the calibration curve.

The mark [2] stands for this setting: Table 1, variations at R1, averaged from three or four independent experiments.
The mark [3] stands for this setting: Table 2, variations at R5, averaged from three or four independent experiments.
[4] abbreviates: Table 3, variations at R2, averaged from three or four independent experiments.
[5] abbreviates: Table 4, variations at X, R3, R4, averaged from three or four independent experiments.
[6] abbreviates: Table 5, variations at Y, R1, R3, R4, R5, averaged from two to four independent experiments.

The term IC50 denotes the midpoint of a concentration-inhibition curve. As a reminder, the melting point is the temperature of the solid-liquid transition. Take `COc1ccc(COC(=O)C2=C(C)NC(=O)NC2c2ccoc2)cc1` (stereo not drawn) [Compound 28, 4-Methoxybenzyl 4-(furan-3-yl)-6-methyl-2-oxo-1,2,3,4-tetrahydropyrimidine-5-carboxylate]: the melting point lay in the range of 157 to 159 °C. In addition, the half-inhibitory concentration (IC50) in data set [1] (setting [2]) amounted to 0.02 µM.

As to `COc1ccc(COC(=O)C2=C(C)NC(=O)NC2c2ccc(C)o2)cc1` (stereo not drawn) [Compound 29, 4-Methoxybenzyl 6-methyl-2-oxo-4-(5-methylfuran-2-yl)-1,2,3,4-tetrahydropyrimidine-5-carboxylate], the melting point fell in the range of 157 to 159 °C. Moreover, the concentration for half-maximal inhibition (IC50) in data set [1] (setting [2]) worked out at 0.09 µM.

`COc1ccc(COC(=O)C2=C(C)NC(=O)NC2c2cccs2)cc1` (stereo not drawn) [Compound 30, 4-Methoxybenzyl 4-(thiophen-2-yl)-6-methyl-2-oxo-1,2,3,4-tetrahydropyrimidine-5-carboxylate] yielded a melting point of 152 to 154 °C. Besides, in data set [1] (setting [2]), the concentration for half-maximal inhibition (IC50) turned out to be 0.05 µM.

`COc1ccc(COC(=O)C2=C(C)NC(=O)NC2c2ccsc2)cc1` (stereo not drawn) [Compound 31, 4-Methoxybenzyl 6-methyl-2-oxo-4-(thiophen-3-yl)-1,2,3,4-tetrahydropyrimidine-5-carboxylate] showed a melting point of 156 to 158 °C. Moreover, the 50% inhibitory concentration (IC50) in data set [1] (setting [2]) amounted to 0.04 µM.

Consider `CC1=C(C(=O)OCc2ccccc2)C(c2ccccc2)NC(=O)N1` (stereo not drawn) [Compound 32, Benzyl 6-methyl-2-oxo-4-phenyl-1,2,3,4-tetrahydropyrimidine-5-carboxylate], for which the melting point lay within 174 to 175 °C. Moreover, in data set [1] (setting [3]), the IC50 amounted to 0.19 µM.

On to `CC1=C(C(=O)OCc2ccccc2Cl)C(c2ccccc2)NC(=O)N1` (stereo not drawn) [Compound 33, 2-Chlorobenzyl 6-methyl-2-oxo-4-phenyl-1,2,3,4-tetrahydropyrimidine-5-carboxylate], for which the melting point lay within 193 to 195 °C. Besides, the IC50 in data set [1] (setting [3]) worked out at 0.35 µM.

In turn, `CC1=C(C(=O)OCc2ccc(Cl)cc2)C(c2ccccc2)NC(=O)N1` (stereo not drawn) [Compound 34, 4-Chlorobenzyl 6-methyl-2-oxo-4-phenyl-1,2,3,4-tetrahydropyrimidine-5-carboxylate] gave a melting point of 216 to 217 °C. The concentration for half-maximal inhibition (IC50) in data set [1] (setting [3]) turned out to be 0.3 µM.

With `CC1=C(C(=O)OCc2ccc(F)cc2)C(c2ccccc2)NC(=O)N1` (stereo not drawn) [Compound 35, 4-Fluorobenzyl 6-methyl-2-oxo-4-phenyl-1,2,3,4-tetrahydropyrimidine-5-carboxylate], the melting point was in the range of 196 to 197 °C. In data set [1] (setting [3]), the concentration for half-maximal inhibition (IC50) came out at 0.2 µM.

`CC1=C(C(=O)OCc2ccccc2C)C(c2ccccc2)NC(=O)N1` (stereo not drawn) [Compound 36, 2-Methylbenzyl 6-methyl-2-oxo-4-phenyl-1,2,3,4-tetrahydropyrimidine-5-carboxylate] yielded a melting point of 157 to 159 °C. Besides, in data set [1] (setting [3]), the half-inhibitory concentration (IC50) was 0.25 µM.

For the molecule `CCC1=C(C(=O)OCc2ccc(OC)cc2)C(c2ccccc2)NC(=O)N1` (stereo not drawn) [Compound 40, 4-Methoxybenzyl 6-ethyl-2-oxo-4-phenyl-1,2,3,4-tetrahydropyrimidine-5-carboxylate], the melting point was in the range of 62 to 65 °C. The IC50 in data set [1] (setting [4]) is 0.07 µM.

`COc1ccc(COC(=O)C2=C(Cc3ccccc3)NC(=O)NC2c2ccccc2)cc1` (stereo not drawn) [Compound 45, 4-Methoxybenzyl 6-benzyl-2-oxo-4-phenyl-1,2,3,4-tetrahydropyrimidine-5-carboxylate] showed a melting point of 140 to 142 °C. In data set [1] (setting [4]), the IC50 came out at 0.25 µM.

Regarding `COc1ccc(COC(=O)C2=C(CNC(=O)c3ccccc3)NC(=O)NC2c2ccccc2)cc1` (stereo not drawn) [Compound 47, 4-Methoxybenzyl 2-oxo-6-(benzamidomethyl)-4-phenyl-1,2,3,4-tetrahydropyrimidine-5-carboxylate], the melting point was in the range of 213 to 216 °C. Besides, the IC50 in data set [1] (setting [4]) was found to be 1.2 µM.

`COc1ccc(COC(=O)C2=C(c3cccs3)NC(=O)NC2c2ccccc2)cc1` (stereo not drawn) [Compound 48, 4-Methoxybenzyl 2-oxo-4-phenyl-6-(thiophen-2-yl)-1,2,3,4-tetrahydropyrimidine-5-carboxylate] displayed a melting point of 78 to 80 °C. Further, the half-maximal inhibitory concentration (IC50) in data set [1] (setting [4]) was determined as 0.55 µM.

On to `COc1ccc(COC(=O)C2=C(C)N(C)C(=O)NC2c2ccccc2)cc1` (stereo not drawn) [Compound 50, 4-Methoxybenzyl 1,6-dimethyl-2-oxo-4-phenyl-1,2,3,4-tetrahydropyrimidine-5-carboxylate], for which the melting point lay in the range of 134 to 136 °C. Besides, the half-inhibitory concentration (IC50) in data set [1] (setting [5]) amounted to 0.075 µM.

`COc1ccc(COC(=O)C2=C(C)NC(=S)NC2c2ccccc2)cc1` (stereo not drawn) [Compound 52, 4-methoxybenzyl 6-methyl-4-phenyl-2-thioxo-1,2,3,4-tetrahydropyrimidine-5-carboxylate] showed a melting point of 174 to 175 °C. Moreover, the half-inhibitory concentration (IC50) in data set [1] (setting [5]) is 0.095 µM.

The molecule `COc1ccc(COC(=O)C2=C(C)N(C)C(=O)NC2c2ccco2)cc1` (stereo not drawn) [Compound 53, 4-Methoxybenzyl 4-(furan-2-yl)-1,6-dimethyl-2-oxo-1,2,3,4-tetrahydropyrimidine-5-carboxylate] had a melting point of 112 to 113 °C. In addition, in data set [1] (setting [6]), the half-inhibitory concentration (IC50) was determined as 0.09 µM.

Molecule `COc1cccc(COC(=O)C2=C(C)NC(=O)NC2c2ccco2)c1` (stereo not drawn) [Compound 55, 3-methoxybenzyl 4-(furan-2-yl)-6-methyl-2-oxo-1,2,3,4-tetrahydropyrimidine-5-carboxylate] showed a melting point of 165 to 166 °C. Further, the half-inhibitory concentration (IC50) in data set [1] (setting [6]) was determined as 0.00057 µM.

For the molecule `COc1cccc(COC(=O)C2=C(C)N(C)C(=O)NC2c2ccco2)c1` (stereo not drawn) [Compound 56, 3-Methoxybenzyl 4-(furan-2-yl)-1,6-dimethyl-2-oxo-1,2,3,4-tetrahydropyrimidine-5-carboxylate], the melting point fell in the range of 155 to 156 °C. Moreover, in data set [1] (setting [6]), the IC50 is 0.075 µM.
